# “And” between values parts separate entries of the source, which are not always exact repeats. Equal values may be shown once.
# Experiments:
# [1] = system: Adjuvant-induced arthritis; assay: Adjuvant-induced arthritis; type: in vivo, Lewis rats; details: 10, 30 and 90 mg/kg daily, topical
# [2] = system: Collagen II induced arthritis; assay: Collagen II induced arthritis; type: in vivo, Lewis rats; details: 10, 30 and 90 mg/kg daily, topical
# Sprague Dawley rats = assay: Respiratory safety pharmacology study; type: in vivo; details: single dermal dose 50, 250, 750 mg/kg
# [3] = system: healthy male and female volunteers; assay: Phase 1 clinical study: safety (adverse events, laboratory, vital signs, ECG); type: in vivo, human; details: for Subjects with at least one TEAE: N = 8
# Text: Safety assessments included monitoring of adverse events (AEs), vital signs (blood pressure, pulse rate, respiratory rate and oral temperature), clinical laboratory findings, resting 12-lead electrocardiogram (ECG) results, skin irritation assessments and physical examination findings.
# Safety endpoints consist of all AEs, clinical laboratory test results, ECG, physical examination and vital sign assessments and skin irritation assessments.
# Safety summaries are provided for all subjects in the safety population. Data from subjects in each cohort who received placebo treatment were pooled. AE data, clinical laboratory test results, ECG, skin irritation and vital signs data are presented descriptively using summary tables and listings. Change from baseline in vital signs, ECG and clinical laboratory results are presented descriptively using summary tables and listings. Physical examination findings are listed by subject.
# Samples for clinical laboratory safety tests (chemistry, hematology, urinalysis) were obtained at the screening visit, Day −1, Day 4, Day 13 and prior to discharge from the study on Day 17 or at early termination. Any clinical laboratory findings considered to be clinically significant were recorded as AEs.
# Systolic and diastolic blood pressure (mmHg) and pulse rate (beats per minute), respiratory rate (breaths per minute) and oral temperature (° C.) were measured after at least 5 minutes at rest in the seated position at the screening visit, at admission on Day −1, Day 5 and Day 13, and prior to and 1 hour following each dose administration.
# A physical examination was performed at the screening visit and on Day 13, or at early termination, and included assessment of the following body systems: general appearance, dermatological, head, eyes, ears, nose and throat, neck, lymph nodes, lungs, heart, abdomen, neurological and musculoskeletal.
# A resting 12-lead ECG was recorded after at least 5 minutes of rest at the screening visit and on Day 13, or at early termination. The ECG parameters recorded include ventricular rate (bpm), PR interval (msec), QRS duration (msec), QT interval (msec), and QTc interval (msec). QTc interval was calculated at the clinic using a formula internal to the ECG equipment (Mortara).
# [4] = N = 8 each, dose by column: c1 17.5, c2 35, c3 70, c4 140, c5 280 mg topical, c6 70 mg spray
compound,measurement,setting,value
CCN(CC)CCOC(=O)C(C)c1ccc(CC(C)C)cc1 (centres unmarked) [2-(diethylamino)ethyl 2-(4-isobutylphenyl)propionate],arthritis,[1],significantly inhibited arthritis.
same,onset of the disease,[2],postponed the onset of the disease.
same,respiratory changes,Sprague Dawley rats,"250, and 750 mg/kg of ibuprofenamine were not associated with respiratory"
same,Subjects with at least one TEAE,[3]; 17.5 mg topical,1 (12.5%) n (%) and 1 (12.5) n (%)
same,"Headache, subjects",[3]; 35 mg topical,2 (25.0%)
same,Subjects with at least one TEAE,[3]; 35 mg topical,3 (37.5%) n (%) and 3 (37.5) n (%)
same,Subjects with at least one TEAE,[3]; 70 mg spray,2 (25.0%) n (%) and 2 (25.0) n (%)
same,Subjects with at least one TEAE,[3]; 70 mg topical,1 (12.5%) n (%) and 1 (12.5) n (%)
same,"Headache, subjects",[3]; 140 mg topical,1 (12.5%)
same,Subjects with at least one TEAE,[3]; 140 mg topical,1 (12.5%) n (%) and 1 (12.5) n (%)
same,Subjects with at least one TEAE,[3]; 280 mg topical,1 (12.5%) n (%) and 1 (12.5) n (%)
same,safety and tolerability,"[3]; 17.5-280 mg topical and 70 mg spray, single and multiple doses",safe and well-tolerated
same,Subjects who discontinued due to an AE,[3]; [4],0
same,Subjects with SAEs,[3]; [4],0
same,TEAE: Dizziness,[3]; [4],0 n (%)
same,TEAE: Vomiting,[3]; [4],0 n (%)
same,intensity of AEs,[3]; all dose groups,mild or moderate in intensity
same,"aspartate aminotransferase (ast) increased, subjects",[3]; each of 70 mg topical and 70 mg spray,1 (12.5%)
same,"alanine aminotransferase (ALT) increased, subjects","[3]; each of 70 mg, 280 mg topical and 70 mg spray",1 (12.5%)
same,ECG parameters,"[3]; human, in vivo",no clinically significant ECG parameter values
same,deaths,"[3]; human, in vivo",No subjects died
same,laboratory findings vs dose,"[3]; human, in vivo",no apparent trends or dose relationship
same,vital signs,"[3]; human, in vivo",no clinically significant vital sign values
